Tested on: HepG2 cells
Experiment: RNA-seq transcriptome analysis of differentially expressed genes
Type: cell-based, human
Procedure: The quality and concentration of RNA were examined by MOPS RNA electrophoresis and Eppendorf BioSpectrometer. The transcriptome analysis was performed by BGI-Wuhan China. The RNA-seq dataset of this study is accessible in the Gene Expression Omnibus (GEO) with an access number of GSE276099. The sequence library for each sample was prepared using the BGISEQ-500 platform with a 50-bp single-end (SE50) format. […]2.2.1) was used to align the clean reads to the reference genome and alignment of the clean reads to the reference genes was carried out using Bowtie2 (v2.4.5) ([Langmead and Salzberg, 2012]; [Kim et al., 2015]). Gene expression levels were calculated by RSEM (v1.3.1) ([Li and Dewey, 2011]). Analysis of differential gene expression was performed using edgeR in the Bioconductor software package ([Robinson et al., 2010]). Using a standard protocol, the RNA samples were also examined by reverse transcription and quantitative polymerase chain reaction (RT-qPCR). In brief, for reverse transcription, total RNA (1 μg) and gDNA wiper Mix were incubated at 42°C for 2 min. The samples were immediately incubated with a master mix containing 10 pmol/μL of poly (dT) primers at 37°C for 15 min and 85°C for 5 s. To detect the expression of specific genes by qPCR analysis, gene-specific primers (shown in Supplementary Table S1) were mixed with the ChamQ Universal SYBER qPCR Master Mix and the reaction was conducted using the Roche Lightcycler 480. The GAPDH value was used to normalize the results of each gene. The RNA-seq data of BCP-treated HepG2 cells were screened for DEGs. Gene symbols were turned into Enterz ID using the org.Hs.eg.db Bio-conductor R package. The cluster profiler (v4.6.2) package was used to perform the Kyoto Encyclopedia of Genes and Genomes (KEGG) and Gene Ontology (GO) enrichment analyses ([Wu et al., 2021]). Following the Transcript per million (TPM) data of the dataset, the line chart, and heatmap were plotted using ggplot2 and pheatmap R packages, respectively.

[1] = HepG2, 150 µM BCP 24 h vs ethanol, RNA-seq DEG
[2] = HepG2, 150 µM BCP 24 h vs ethanol, FDR ≤ 0.05, 1.5-fold change

SMILES: C=C1CC/C=C(\C)CC[C@@H]2[C@@H]1CC2(C)C [BCP, β-caryophyllene]
- TSHZ2 logFC (BCP vs control HepG2, RNA-seq): 0.586
- TSPAN18 change (BCP vs control HepG2, RNA-seq): Up
- TSPAN18 logFC (BCP vs control HepG2, RNA-seq): 0.6055
- TTC21A change (BCP vs control HepG2, RNA-seq): Up
- TTC21A logFC (BCP vs control HepG2, RNA-seq): 1.034
- TTC30B change (BCP vs control HepG2, RNA-seq): Up
- TTC30B logFC (BCP vs control HepG2, RNA-seq): 1.0891
- TYW1B change (BCP vs control HepG2, RNA-seq): Down
- TYW1B logFC (BCP vs control HepG2, RNA-seq): -0.7579
- VEPH1 change (BCP vs control HepG2, RNA-seq): Up
- VEPH1 logFC (BCP vs control HepG2, RNA-seq): 0.6882
- WASF3 change (BCP vs control HepG2, RNA-seq): Down
- WASF3 logFC (BCP vs control HepG2, RNA-seq): -1.027
- WDR86 change (BCP vs control HepG2, RNA-seq): Down
- WDR86 logFC (BCP vs control HepG2, RNA-seq): -0.8076
- ZNF165 change (BCP vs control HepG2, RNA-seq): Up
- ZNF165 logFC (BCP vs control HepG2, RNA-seq): 0.918
- ZNF284 change (BCP vs control HepG2, RNA-seq): Down
- ZNF284 logFC (BCP vs control HepG2, RNA-seq): -0.7229
- ZNF341 change (BCP vs control HepG2, RNA-seq): Down
- ZNF341 logFC (BCP vs control HepG2, RNA-seq): -0.6282
- ADORA2A expression change (BCP_treatment) [1]: Down
- ADRA2C expression change (BCP_treatment) [1]: Down
- ALYREF expression change (BCP_treatment) [1]: Down
- ANK1 expression change (BCP_treatment) [1]: Down
- ANKFN1 expression change (BCP_treatment) [1]: Down
- ARTN expression change (BCP_treatment) [1]: markedly downregulated and Down
- B3GNT4 expression change (BCP_treatment) [1]: Down
- BICDL1 expression change (BCP_treatment) [1]: Down
- BOC expression change (BCP_treatment) [1]: Down
- BOLA2B expression change (BCP_treatment) [1]: Down
- CA5B expression change (BCP_treatment) [1]: Down
- CACNA1E expression change (BCP_treatment) [1]: markedly downregulated and Down
- CAMK2N2 expression change (BCP_treatment) [1]: Down
- CCDC86 expression change (BCP_treatment) [1]: Down
- CCL26 expression change (BCP_treatment) [1]: Down
- CHST6 expression change (BCP_treatment) [1]: Down
- CLIP2 expression change (BCP_treatment) [1]: Down
- CYP26B1 expression change (BCP_treatment) [1]: Down
- DPF1 expression change (BCP_treatment) [1]: Down
- EN2 expression change (BCP_treatment) [1]: Down
- FAM222A expression change (BCP_treatment) [1]: Down
- FBXL22 expression change (BCP_treatment) [1]: Down
- FBXO27 expression change (BCP_treatment) [1]: Down
- FBXO44 expression change (BCP_treatment) [1]: Down
- FRMD3 expression change (BCP_treatment) [1]: Down
- FUT3 expression change (BCP_treatment) [1]: Down
- GBP2 expression change (BCP_treatment) [1]: Down
- GNAZ expression change (BCP_treatment) [1]: Down
- H1-2 expression change (BCP_treatment) [1]: Down
- H2BC11 expression change (BCP_treatment) [1]: Down
- H2BC12 expression change (BCP_treatment) [1]: Down
- H3C6 expression change (BCP_treatment) [1]: Down
- H4C8 expression change (BCP_treatment) [1]: Down
- HPDL expression change (BCP_treatment) [1]: Down
- ISYNA1 expression change (BCP_treatment) [1]: Down
- KCNH3 expression change (BCP_treatment) [1]: Down
- KHDC1 expression change (BCP_treatment) [1]: Down
- LYSMD4 expression change (BCP_treatment) [1]: Down
- MAFA expression change (BCP_treatment) [1]: Down
- MAGEB17 expression change (BCP_treatment) [1]: Down
- MAP1A expression change (BCP_treatment) [1]: Down
- MNX1 expression change (BCP_treatment) [1]: Down
- MYB expression change (BCP_treatment) [1]: Down
- MYEOV expression change (BCP_treatment) [1]: Down
- NES expression change (BCP_treatment) [1]: Down
- NR6A1 expression change (BCP_treatment) [1]: Down
- PAQR5 expression change (BCP_treatment) [1]: Down
- PGF expression change (BCP_treatment) [1]: markedly downregulated and Down
- PI3 expression change (BCP_treatment) [1]: Down
- RAPGEF3 expression change (BCP_treatment) [1]: Down
- RASD2 expression change (BCP_treatment) [1]: Down
- RHBDL3 expression change (BCP_treatment) [1]: Down
- S100A3 expression change (BCP_treatment) [1]: Down
- SCIN expression change (BCP_treatment) [1]: Down
- SHC3 expression change (BCP_treatment) [1]: Down
- SLC4A11 expression change (BCP_treatment) [1]: Down
- SP6 expression change (BCP_treatment) [1]: Down
- STXBP6 expression change (BCP_treatment) [1]: Down
- SYN3 expression change (BCP_treatment) [1]: Down
- TMEM120B expression change (BCP_treatment) [1]: Down
- TMEM158 expression change (BCP_treatment) [1]: Down
- TNFSF15 expression change (BCP_treatment) [1]: Down
- TRNP1 expression change (BCP_treatment) [1]: Down
- VAMP1 expression change (BCP_treatment) [1]: Down
- ZBED6CL expression change (BCP_treatment) [1]: Down
- ZNF284 expression change (BCP_treatment) [1]: Down
- ZNF341 expression change (BCP_treatment) [1]: Down
- number of downregulated genes [2]: 245
- number of upregulated genes [2]: 188
- total number of DEGs [2]: 433
- logFC ABLIM2 (gene ABLIM2, BCP vs control HepG2, RNA-seq): 1.01
- change ABLIM2 (gene ABLIM2, DEG direction, BCP vs control HepG2): Up
- logFC ACKR3 (gene ACKR3, BCP vs control HepG2, RNA-seq): 0.6675
- change ACKR3 (gene ACKR3, DEG direction, BCP vs control HepG2): Up
- logFC ACYP2 (gene ACYP2, BCP vs control HepG2, RNA-seq): -0.6093
- change ACYP2 (gene ACYP2, DEG direction, BCP vs control HepG2): Down
- logFC ADGRD1 (gene ADGRD1, BCP vs control HepG2, RNA-seq): 0.8304
- change ADGRD1 (gene ADGRD1, DEG direction, BCP vs control HepG2): Up
- logFC ADGRG6 (gene ADGRG6, BCP vs control HepG2, RNA-seq): 0.7321
- change ADGRG6 (gene ADGRG6, DEG direction, BCP vs control HepG2): Up
- logFC AKR1B1 (gene AKR1B1, BCP vs control HepG2, RNA-seq): -0.8932
- change AKR1B1 (gene AKR1B1, DEG direction, BCP vs control HepG2): Down
- logFC ALDH1L2 (gene ALDH1L2, BCP vs control HepG2, RNA-seq): 0.8642
- change ALDH1L2 (gene ALDH1L2, DEG direction, BCP vs control HepG2): Up
- logFC ALPI (gene ALPI, BCP vs control HepG2, RNA-seq): 0.9718
- change ALPI (gene ALPI, DEG direction, BCP vs control HepG2): Up
- logFC ALPL (gene ALPL, BCP vs control HepG2, RNA-seq): 1.081
- change ALPL (gene ALPL, DEG direction, BCP vs control HepG2): Up
- logFC ALYREF (gene ALYREF, BCP vs control HepG2, RNA-seq): -0.7733
- change ALYREF (gene ALYREF, DEG direction, BCP vs control HepG2): Down
- logFC AMPD2 (gene AMPD2, BCP vs control HepG2, RNA-seq): -0.8008
- change AMPD2 (gene AMPD2, DEG direction, BCP vs control HepG2): Down
- logFC ANKFN1 (gene ANKFN1, BCP vs control HepG2, RNA-seq): -1.752
- change ANKFN1 (gene ANKFN1, DEG direction, BCP vs control HepG2): Down
- logFC ANO2 (gene ANO2, BCP vs control HepG2, RNA-seq): 1.524
- change ANO2 (gene ANO2, DEG direction, BCP vs control HepG2): Up

— publication PMC11671526, “β-caryophyllene sensitizes hepatocellular carcinoma cells to chemotherapeutics and inhibits cell malignancy through targeting MAPK signaling pathway” (Frontiers in Pharmacology, 2024)
